From US20240115546A1, “AGENT FOR PREVENTING OR AMELIORATING PRURITUS” (KAO CORPORATION, priority 2021, published 2024)

How the values were obtained:
C3a receptor = target: T1, C3a receptor (Homo sapiens, UniProt Q16581); experiment: Ca2+-flux assay for C3a receptor antagonism in transfected HEK293 cells; assay type: cell-based; details: antagonist 10 nM, mouse TLQP-21 1 μM; HEK293 transfected with C3a receptor and GNA16; Fluo-4; vs control; FIG. 6
T1 sequence (Q16581 1-482): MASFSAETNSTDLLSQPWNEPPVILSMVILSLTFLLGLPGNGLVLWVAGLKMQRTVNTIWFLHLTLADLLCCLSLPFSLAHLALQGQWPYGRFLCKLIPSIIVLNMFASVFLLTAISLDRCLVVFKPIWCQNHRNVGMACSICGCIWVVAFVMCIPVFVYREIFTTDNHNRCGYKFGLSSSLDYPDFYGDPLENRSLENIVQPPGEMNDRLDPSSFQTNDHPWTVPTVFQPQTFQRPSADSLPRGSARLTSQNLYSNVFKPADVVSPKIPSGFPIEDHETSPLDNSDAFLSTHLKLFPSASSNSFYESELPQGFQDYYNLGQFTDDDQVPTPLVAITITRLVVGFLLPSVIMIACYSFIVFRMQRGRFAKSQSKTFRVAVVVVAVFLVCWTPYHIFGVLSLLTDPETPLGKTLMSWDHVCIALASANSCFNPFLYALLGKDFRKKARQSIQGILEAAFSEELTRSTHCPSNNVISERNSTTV
Experimental: In the following evaluation, Compound 1 and Compound 2 were dissolved in DMSO and diluted with HBSS as appropriate.
Human Embryonic Kidney cells 293 (HEK293) were used, transfected with the expression vectors necessary for evaluation according to the following.
A transfection solution was prepared by sequentially adding C3a receptor expression vector, GNA16 expression vector, and PEI-MAX (PolyScience) solution to serum-free DMEM medium, mixing well, and then allowing it to stand at room temperature for 20 minutes. […]
The cells for evaluating C3a receptor response described above were seeded in a 96-well Black Polystyrene Microplate (Thermo fisher scientific) precoated with Poly-L-Ornithine Solution (FUJIFILM Wako Pure Chemical). […] After 15 minutes, a mouse TLQP-21 solution was added for C3a receptor stimulation, and the Ca^2+ influx associated with the stimulation was measured over time as intracellular fluorescence intensity (Ex: 494 nm, Em: 525 nm). The value obtained by subtracting the measured value when HBSS was added instead of mouse TLQP-21 solution (blank) was used as the measured value. The C3a receptor antagonist solution and mouse TLQP-21 solution were added after adjusting their concentrations by appropriately diluting them so that their final concentrations when measuring fluorescence intensity were 10 nM and 1 μM, respectively. […]

[1] = system: AD model mice (NC/Nga, mite allergen-induced); experiment: Scratching behavior in AD model mice given C3a receptor antagonist; assay type: in vivo, mouse; details: 200 μL subcutaneous, Compound 1 0.5 mg/mL, Compound 2 0.05 mg/mL, three times a week; measured for 3 hours after last administration; vs solvent alone; FIG. 7
Experimental: Seven-week-old female NC/Nga mice were used.
Preparation of AD model mice: The back of the neck was shaved, and 100 mg of an ointment containing mite allergen: Biostir AD (Biostir Inc.) was applied to the back of the neck and auricular region under isoflurane anesthesia for initial sensitization. Four days after the first application of the ointment containing mite allergen, 150 μL of 4% (w/v) SDS solution and 100 mg of ointment containing mite allergen were applied to the back of the neck and auricular region under isoflurane anesthesia. Thereafter, the same procedure was performed four times at a frequency of once every 3 to 4 days to induce AD-like dermatitis.
Compound 1 or Compound 2, whose C3a receptor antagonism was confirmed in Example 4 above, was used as a C3a receptor antagonist. Compound 1 or Compound 2 was dissolved in saline containing 20% polyethylene glycol 400, of which 200 μL was administered subcutaneously to the back of the neck. The control group was administered with the same amount of only the above solvent. The concentration of the C3a receptor antagonist solution was set at 0.5 mg/mL for Compound 1 and 0.05 mg/mL for Compound 2. […]
Four days after the last application of the ointment containing mite allergen, the scratching behavior was measured for 3 hours after the last administration of the sample. […]

[2] = system: AEW model mice (C57BL/6J); experiment: Scratching behavior in AEW model mice given C3a receptor antagonist; assay type: in vivo, mouse; details: 200 μL subcutaneous, Compound 1 0.5 mg/mL, Compound 2 0.05 mg/mL, once daily for 8 days; measured for 3 hours after last administration; vs solvent alone; FIG. 8
Text: The animals used were male C57BL/6J mice.
Preparation of AEW model: The back of the neck was shaved, and absorbent cotton soaked with a 1:1 (v/v) mixture of acetone and diethyl ether was applied and allowed to stand for 15 seconds. Immediately thereafter, absorbent cotton soaked with water was applied for 30 seconds. This treatment was repeated twice/day (morning and evening) for 7 days.
Compound 1 or Compound 2, whose C3a receptor antagonism was confirmed in Example 4 above, was used as a C3a receptor antagonist. Compound 1 or Compound 2 was dissolved in saline containing 20% polyethylene glycol 400, of which 200 μL was administered subcutaneously to the back of the neck. The control group was administered with the same amount of only the above solvent. The concentration of the C3a receptor antagonist solution was set at 0.5 mg/mL for Compound 1 and 0.05 mg/mL for Compound 2. Sample administration started after the first AEW treatment and was performed at a frequency of once daily for 8 days.
Sixteen hours after the last AEW treatment, the scratching behavior was measured for 3 hours after the last administration of the sample. MicroAct (Neuroscience) was used to measure the scratching behavior.

| Structure (SMILES) | Fluorescence intensity due to C3a receptor stimulation by TLQP-21 (Ca2+ influx, integrated over 3 min) (C3a receptor) | Scratching behavior [1] | Scratching behavior [2] |
| --- | --- | --- | --- |
| N=C(N)NCCC[C@H](NC(=O)c1ccc(C(c2ccccc2)c2ccccc2)s1)C(=O)O [Compound 1, L-arginine, N2-[[5-(diphenylmethyl)-2-thienyl]carbonyl]] | greatly suppressed | significant decrease | significant decrease |
| Cc1cc(C(c2ccc(Cl)cc2)c2ccc(Cl)cc2)sc1C(=O)N[C@@H](CCCNC(=N)N)C(=O)O [Compound 2, L-arginine, N2-[[5-[bis(4-chlorophenyl)methyl]-3-methyl-2-thienyl]carbonyl]] | greatly suppressed | significant decrease | significant decrease |
